Laboratory results taken from patent US20240398805A1, “QUINAZOLINE DERIVED COMPOUNDS AS EGFR INHIBITORS AND THEIR USES THEREOF” (ACCUTAR BIOTECHNOLOGY INC., priority 2021, published 2024).

Experiments:
Assay type in all cases: cell-based
HCC827 cells = assay: Cell growth inhibition (CellTiter-Glo, 3 days) in HCC827; conditions: Homo sapiens, 72 h, 3 days after administration
Procedure, shortened: (§1)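 Growth inhibition was scored by CellTiter-Glo luminescence after 3-day compound exposure at various concentrations. Cells were plated at 5000/well the day before treatment: A431 in DMEM and HCC827 in RPMI, each with 10% FBS.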

[1] = test system: HCC827-SVD cells (human EGFR exon 20 insertion mutant D770_N771 insSVD); assay: Cell growth inhibition (CellTiter-Glo, 3 days) in HCC827-SVD; conditions: 72 h, 3 days after administration
Procedure, shortened: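 HCC827 cells carrying lentiviral codon-optimized EGFR D770_N771 insSVD, with endogenous EGFR knocked out by CRISPR (single clone), seeded at 5000 cells/well in RPMI with 10% FBS. Viability read by CellTiter-Glo luminescence.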

[2] = test system: HCC827-ASV cells (human EGFR exon 20 insertion mutant A769_D770insASV); assay: Cell growth inhibition (CellTiter-Glo, 3 days) in HCC827-ASV; conditions: 72 h, 3 days after administration
Procedure, shortened: (§2)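 HCC827 cells lentivirally transduced with codon-optimized ASV or YVMA insertion mutants were seeded at 5000 cells/well in RPMI with 10% FBS and incubated overnight. Compound was added at various concentrations from a 10× stock in medium, with 3 days' incubation. Viability read by CellTiter-Glo luminescence.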

[3] = test system: HCC827-YVMA cells (human ERBB2 exon20 insertion mutant A775_G776ins YVMA); assay: Cell growth inhibition (CellTiter-Glo, 3 days) in HCC827-YVMA; conditions: 72 h, 3 days after administration
Procedure, shortened: as §2

A431 cells = assay: Cell growth inhibition (CellTiter-Glo, 3 days) in A431; conditions: Homo sapiens, A-431, 72 h, 3 days after administration
Procedure, shortened: as §1

Structure (SMILES) | GI50 (HCC827 cells) [nM] | GI50 [1] [nM] | GI50 [2] [nM] | GI50 [3] [nM] | GI50 (A431 cells) [nM]
C=CC(=O)N1CCC(Nc2cc3c(Nc4ccc(Oc5ccnc(N6CC7CCC(C6)O7)c5)cc4F)ncnc3cc2OC)CC1 [Example 130, 1-(4-((4-((4-((2-(8-oxa-3-azabicyclo[3.2.1]octan-3-yl)pyridin-4-yl)oxy)-2-fluorophenyl)amino)-7-methoxyquinazolin-6-yl)amino)piperidin-1-yl)prop-2-en-1-one] | 100 to 300 | 30 to 60 | 30 to 60 | 30 to 60 | 300 to 600
C=CC(=O)N1CCC(Nc2cc3c(Nc4ccc(Oc5ncc(-c6ccc(C)nc6)s5)cc4F)ncnc3cc2OC)CC1 [Compound 5, 1-(4-((4-((2-fluoro-4-((5-(6-methylpyridin-3-yl)thiazol-2-yl)oxy)phenyl)amino)-7-methoxyquinazolin-6-yl)amino)piperidin-1-yl)prop-2-en-1-one] | 100 to 300 | 100 to 300 | 100 to 300 | 100 to 300 | 300 to 600
C=CC(=O)N1CCC(Nc2cc3c(Nc4ccc(Oc5ccnc(N6CCC(C)(O)CC6)c5)cc4F)ncnc3cc2OC)CC1 [Example 128, 1-(4-((4-((2-fluoro-4-((2-(4-hydroxy-4-methylpiperidin-1-yl)pyridin-4-yl)oxy)phenyl)amino)-7-methoxyquinazolin-6-yl)amino)piperidin-1-yl)prop-2-en-1-one] | 300 to 600 | 60 to 100 | 100 to 300 | 100 to 300 | ≥ 1000
C=CC(=O)N1CCC(Nc2cc3c(Nc4ccc(Oc5ccnc(C(=O)OC)c5)cc4F)ncnc3cc2OC)CC1 [Example 211, methyl 4-(4-((6-((1-acryloylpiperidin-4-yl)amino)-7-methoxyquinazolin-4-yl)amino)-3-fluorophenoxy) picolinate] | ≥ 1000 | ≥ 1000 | ≥ 1000 | 600 to 1000 | ≥ 1000
C=CC(=O)N1CCC(Nc2cc3c(Nc4ccc(Oc5ccnc(N6CC(C#N)C6)c5)cc4F)ncnc3cc2OC)CC1 [Example 141, 1-(4-(4-((6-((1-acryloylpiperidin-4-yl)amino)-7-methoxyquinazolin-4-yl)amino)-3-fluorophenoxy)pyridin-2-yl)azetidine-3-carbonitrile] | 100 to 300 | 30 to 60 | < 30 | 30 to 60 | ≥ 1000
C=CC(=O)N1CCC(Nc2cc3c(Nc4ccc(Oc5ccnc(-c6cscn6)c5)cc4F)ncnc3cc2OC)CC1 [Compound 41, 1-(4-((4-((2-fluoro-4-((2-(thiazol-4-yl)pyridin-4-yl)oxy)phenyl)amino)-7-methoxyquinazolin-6-yl)amino)piperidin-1-yl)prop-2-en-1-one] | 60 to 100 | < 30 | < 30 | < 30 | 300 to 600
C=CC(=O)N1CCC(Nc2cc3c(Nc4ccc(Oc5ncc(-c6cnc(C)c(F)c6)s5)cc4F)ncnc3cc2OC)CC1 [Example 88, 1-(4-((4-((2-fluoro-4-((5-(5-fluoro-6-methylpyridin-3-yl)thiazol-2-yl)oxy)phenyl)amino)-7-methoxyquinazolin-6-yl)amino)piperidin-1-yl)prop-2-en-1-one] | 30 to 60 | 100 to 300 | 60 to 100 | 30 to 60 | ≥ 1000
C=CC(=O)N1CCC(Nc2cc3c(Nc4ccc(Oc5ccnc(N6C[C@@H](F)[C@@H](OC)C6)c5)cc4F)ncnc3cc2OC)CC1 [Example 263, 1-(4-((4-((2-fluoro-4-((2-((3R,4S)-3-fluoro-4-methoxypyrrolidin-1-yl)pyridin-4-yl)oxy)phenyl)amino)-7-methoxyquinazolin-6-yl)amino)piperidin-1-yl)prop-2-en-1-one] | 100 to 300 | < 30 | < 30 | < 30 | 600 to 1000
